Active and inactive are the calls of the source.
Key:
[1] = Luminescence Cell-Based Dose Confirmation HTS to Identify Activators of 5'UTR Stem-Loop Driven Alpha-Synuclein mRNA Translation in H4 Neuroglioblastoma Cells. [Related pubchem assays: 1829 (Project Summary), 1814 (Primary HTS)]; format: functional
[2] = test system: H4; test: Luminescence Cell-Based Dose Response HTS to Identify Activators of 5'UTR Stem-Loop Driven Prion Protein mRNA Translation in H4 Neuroglioblastoma Cells. [Related pubchem assays: 1829 (Project Summary), 1814 (Primary HTS)]; format: functional; settings: Homo sapiens
[3] = test system: BJ; test: growth inhibition of engineered Ras-driven BJ cells – cell-based, alamar blue fluorescence, cherrypicked samples, dose response (AID 2631); format: functional; settings: Homo sapiens;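 further: confirmatory dose-response assay in RAS-dependent BJ fibroblasts engineered with TERT, LT and ST, with cytotoxicity read by fluorescence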
[4] = EF1alpha-driven Renilla reporter with control 3'UTR suppression – Clone20-Shn3RL cells, dual-Glo, cherry-pick, set 2, counter-screen for Shn3 3'UTR targeting project, dose response (AID 720724); format: functional, cell-based; settings: Dual-Go Shn3RL
[5] = biological target: T1, Replicative DNA helicase DnaB (Mycobacterium tuberculosis, UniProt P9WMR3); test: DnaB intein splicing inhibitors, dose response, biochemical, cell-free fluorescence (AID 449749); format: functional
T1 sequence (P9WMR3 whole entry): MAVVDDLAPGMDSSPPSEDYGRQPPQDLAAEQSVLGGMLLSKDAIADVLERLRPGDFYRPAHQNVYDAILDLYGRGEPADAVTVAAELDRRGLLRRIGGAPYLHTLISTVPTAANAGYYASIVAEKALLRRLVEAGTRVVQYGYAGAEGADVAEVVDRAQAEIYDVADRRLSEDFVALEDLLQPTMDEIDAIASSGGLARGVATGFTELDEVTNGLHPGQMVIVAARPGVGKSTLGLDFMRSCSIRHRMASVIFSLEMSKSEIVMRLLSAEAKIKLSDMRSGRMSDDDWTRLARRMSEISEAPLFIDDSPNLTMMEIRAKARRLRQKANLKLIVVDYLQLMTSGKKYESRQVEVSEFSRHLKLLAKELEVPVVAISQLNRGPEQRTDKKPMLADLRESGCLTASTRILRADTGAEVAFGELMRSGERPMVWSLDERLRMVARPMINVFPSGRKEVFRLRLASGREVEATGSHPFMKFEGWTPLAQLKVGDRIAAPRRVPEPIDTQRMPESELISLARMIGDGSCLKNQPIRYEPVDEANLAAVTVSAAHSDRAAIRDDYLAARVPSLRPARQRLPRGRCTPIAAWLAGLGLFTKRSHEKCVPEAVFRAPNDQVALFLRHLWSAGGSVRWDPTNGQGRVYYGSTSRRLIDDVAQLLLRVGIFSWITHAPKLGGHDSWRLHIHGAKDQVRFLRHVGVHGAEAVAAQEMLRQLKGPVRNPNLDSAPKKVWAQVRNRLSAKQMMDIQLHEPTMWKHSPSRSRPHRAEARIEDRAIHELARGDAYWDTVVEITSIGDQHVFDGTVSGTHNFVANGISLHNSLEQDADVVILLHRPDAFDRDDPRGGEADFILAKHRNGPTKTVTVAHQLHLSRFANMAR

[6] = Shn3 3'UTR reporter signal decrease – cell-based, Clone20 osteoblasts, firefly luciferase, cherry-pick, set 2, Schnurri-3 inhibitor project, dose response (AID 720490); format: functional;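 further: actives lower the luminescence signal as inhibitors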
[7] = test system: BJ; test: BJ-TERT-LT-ST fibroblast viability loss – cell-based, RAS-independent, luminescence, dose response (AID 1935); format: functional; settings: Homo sapiens;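 further: BJ fibroblasts immortalized with TERT plus LT and ST oncogenes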
[8] = non-specific 3'UTR reporter inhibition in Clone20-Shn3RL – cell-based, Renilla luciferase, cherry-picked, counter-screen for Shn3 inhibitor project, dose response (AID 624133); format: functional
[9] = test system: CHO; test: CHO cell viability loss, potency – luminescence, cytotoxicity control for TLR9-MyD88 binding inhibitor project, dose response (AID 588339); format: functional, cell-based, hamster; settings: Cricetulus griseus;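 further: CHO cells stably coexpressing TLR9 and MyD88 fusions from primary screen; compound exposure lasted 48 hours before viability readout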
[10] = Fluorescence-based cell-based high throughput dose response assay for inhibitors of the interaction of nucleotide-binding oligomerization domain containing 2 (NOD2) and the receptor-interacting serine-threonine kinase 2 (RIPK2).; format: functional; settings: Homo sapiens
[11] = test system: BJ; test: BJ-TERT fibroblast viability loss – cell-based, RAS-independent, luminescence, dose response (AID 1933); format: functional; settings: Homo sapiens
[12] = reduction of Shn3 3'UTR-driven luciferase in osteoblasts – cell-based, Clone20 osteoblasts, firefly luciferase, cherry-picked, dose response (AID 624132); format: functional;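 further: firefly luciferase luminescence from reporter carrying the Shn3 3'UTR in osteoblasts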
[13] = DRD fibroblast viability loss – cell-based, non-viral oncogenic, luminescence, dose response (AID 1934); format: functional; settings: Homo sapiens
[14] = biological target: T2, Beta Lactamase (Pseudomonas aeruginosa, UniProt Q932Y6); test: BLA reporter interference, concentration series – BLA reporter cells, FRET fluorescence, artefact control for NOD2-RIPK2 interaction inhibitor project, dose response (AID 651552); format: functional, cell-based
[15] = Luminescence Cell-Based Dose Response HTS to Identify Activators of Luciferase Translation or Activity in H4 […] Cells. [Related pubchem assays: 1829 (Project Summary), 1814 (Primary HTS)]; format: functional
[16] = Shn3 transcript knock-down in Clone20 cells – cell-based, qPCR, cherry-pick, dose response (AID 743415); format: functional
[17] = loss of viability in HepG2 cells – cell-based, CellTiter-Glo, cherry-picked, cytotoxicity control for Shn3 inhibitor project, dose response (AID 624134); format: functional
[18] = test system: BJ; test: cells; format: functional, cell-based; settings: Homo sapiens
[19] = biological target: T2, Beta Lactamase; test: BLA reporter interference, concentration series – BLA reporter cells, FRET fluorescence, artefact control for TLR9-MyD88 binding inhibitor project, dose response (AID 588341); format: cell-based;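 further: cell based assay in CHO-K1 cells stably expressing beta-lactamase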
[20] = biological target: T3, Protein RecA (Mycobacterium tuberculosis, UniProt P9WHJ3); test: Fluorescence Cell-Free Homogeneous Dose Retest to Identify Inhibitors of RecA-Intein Splicing Activity. [Related pubchem assays (depositor defined):AID2097, AID2223, AID489010, AID492950]; format: functional
T3 sequence (P9WHJ3 whole entry): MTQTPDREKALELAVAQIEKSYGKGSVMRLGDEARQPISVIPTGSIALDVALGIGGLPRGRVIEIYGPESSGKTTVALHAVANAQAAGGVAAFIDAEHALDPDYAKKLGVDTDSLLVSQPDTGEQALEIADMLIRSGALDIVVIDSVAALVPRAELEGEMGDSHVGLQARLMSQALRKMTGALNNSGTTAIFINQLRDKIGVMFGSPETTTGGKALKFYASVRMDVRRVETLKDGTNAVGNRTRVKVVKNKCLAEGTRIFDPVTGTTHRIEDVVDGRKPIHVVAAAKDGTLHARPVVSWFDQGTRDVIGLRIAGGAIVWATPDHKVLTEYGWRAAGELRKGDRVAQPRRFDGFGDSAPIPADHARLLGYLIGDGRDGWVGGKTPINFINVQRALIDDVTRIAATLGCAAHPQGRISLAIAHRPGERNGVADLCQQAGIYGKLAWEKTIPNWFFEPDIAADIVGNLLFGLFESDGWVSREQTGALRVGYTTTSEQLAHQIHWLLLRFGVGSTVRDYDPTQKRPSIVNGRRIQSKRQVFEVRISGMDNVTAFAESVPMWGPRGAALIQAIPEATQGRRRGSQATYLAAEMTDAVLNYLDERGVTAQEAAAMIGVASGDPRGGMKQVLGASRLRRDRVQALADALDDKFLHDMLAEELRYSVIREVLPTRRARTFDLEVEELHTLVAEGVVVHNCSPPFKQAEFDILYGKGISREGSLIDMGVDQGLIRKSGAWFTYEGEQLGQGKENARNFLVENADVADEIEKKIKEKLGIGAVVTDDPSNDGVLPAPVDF

[21] = HEK-293T viability loss after treatment – luminescence, T-cell screen hits, cytotoxicity control for TCR NF-kB inhibitor project, dose response (AID 489026); format: functional, cell-based;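 further: cells exposed to compound about 14 hours before the viability readout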
[22] = biological target: T4, Insulin-degrading enzyme (Homo sapiens, UniProt P14735); test: cellular IDE activation of Abeta substrate cleavage – fluorescence polarization, HEK cells, dose response (AID 588439); format: functional, cell-based
T4 sequence (P14735 whole entry): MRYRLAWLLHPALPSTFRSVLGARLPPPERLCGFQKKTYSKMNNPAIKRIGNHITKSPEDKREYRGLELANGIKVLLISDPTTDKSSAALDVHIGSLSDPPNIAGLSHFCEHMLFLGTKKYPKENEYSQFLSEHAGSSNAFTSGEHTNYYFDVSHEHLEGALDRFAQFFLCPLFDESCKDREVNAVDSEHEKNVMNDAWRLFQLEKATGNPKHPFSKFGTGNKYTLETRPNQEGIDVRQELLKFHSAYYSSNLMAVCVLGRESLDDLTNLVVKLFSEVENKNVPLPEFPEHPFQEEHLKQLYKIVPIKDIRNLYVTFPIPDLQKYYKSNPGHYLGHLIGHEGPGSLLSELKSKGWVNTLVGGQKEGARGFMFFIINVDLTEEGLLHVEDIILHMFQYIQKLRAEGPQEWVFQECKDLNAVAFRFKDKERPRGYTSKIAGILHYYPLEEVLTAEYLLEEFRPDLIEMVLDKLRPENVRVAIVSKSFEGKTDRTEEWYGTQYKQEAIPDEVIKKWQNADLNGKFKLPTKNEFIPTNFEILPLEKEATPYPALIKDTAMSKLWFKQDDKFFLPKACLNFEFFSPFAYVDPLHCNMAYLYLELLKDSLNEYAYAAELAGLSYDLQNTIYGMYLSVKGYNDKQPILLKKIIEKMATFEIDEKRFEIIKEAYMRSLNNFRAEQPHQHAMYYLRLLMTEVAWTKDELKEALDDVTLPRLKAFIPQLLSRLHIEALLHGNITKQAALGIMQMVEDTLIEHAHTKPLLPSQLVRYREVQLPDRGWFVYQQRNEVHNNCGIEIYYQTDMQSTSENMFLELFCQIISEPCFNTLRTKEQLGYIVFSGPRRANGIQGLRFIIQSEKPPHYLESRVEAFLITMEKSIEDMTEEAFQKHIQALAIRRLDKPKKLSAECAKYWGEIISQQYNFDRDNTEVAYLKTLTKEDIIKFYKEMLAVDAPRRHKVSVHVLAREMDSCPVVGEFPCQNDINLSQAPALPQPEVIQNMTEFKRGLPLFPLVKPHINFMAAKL

[23] = test system: HEK293; test: membrane integrity loss in HEK cells – cell-based, fluorescence, cytotoxicity control for IDE activator project, dose response (AID 588440); format: functional; settings: Homo sapiens;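 further: cytotoxicity by LDH release measuring loss of membrane integrity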
[24] = test system: HEK293; test: optical interference in Abeta FP readout, dose response, artefact control for IDE activator project, biochemical, fluorescence polarization (AID 588442); format: functional, cell-based; settings: Homo sapiens
[25] = biological target: T4, Insulin-degrading enzyme; test: recombinant IDE activation, cell-free – biochemical, fluorescence polarization, counter-screen for IDE activator project, dose response (AID 588681)

T2 sequence (Q932Y6 whole entry): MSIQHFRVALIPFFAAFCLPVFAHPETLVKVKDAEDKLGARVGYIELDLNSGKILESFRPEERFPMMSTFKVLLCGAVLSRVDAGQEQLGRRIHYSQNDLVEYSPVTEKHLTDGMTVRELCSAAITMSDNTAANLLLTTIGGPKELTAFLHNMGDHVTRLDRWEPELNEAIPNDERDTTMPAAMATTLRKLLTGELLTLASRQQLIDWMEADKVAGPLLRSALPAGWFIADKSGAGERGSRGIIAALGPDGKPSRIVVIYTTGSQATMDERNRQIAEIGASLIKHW

## CCOC(=O)C1CCN(S(=O)(=O)c2c(Cl)ccc3nonc23)CC1
[1]
  EC50: > 120 µM (not active)
[2]
  EC50: > 120 µM (not active)
[3]
  EC50: 0.318 µM (active)
[4]
  AC50: 1.77 µM (active)
[5]
  AC50: 5.07 µM (active)
[6]
  AC50: 1.97 µM (active)
[7]
  EC50: 2.84 µM (inconclusive)
[8]
  AC50: 4.78 µM (active)
[9]
  IC50: 2.42 µM (active)
[10]
  IC50: 1.12 µM (active)
[11]
  EC50: 2.73 µM (inconclusive)
[12]
  AC50: 0.919 µM (active)
[13]
  EC50: 2.75 µM (active)
[14]
  IC50: 26.8 µM (inactive)
[15]
  EC50: > 120 µM (not active)
[16]
  AC50: 3.36 µM (active)
[17]
  AC50: 12.2 µM (active)
[18]
  EC50: 6.08 µM (inconclusive)
[19]
  IC50: 21.2 µM (inactive)
[20]
  EC50: 14.4 µM (active)
[21]
  IC50: > 80 µM (inactive)

## CCN(CC(=O)Nc1ccc(NC(C)=O)cc1)C(=O)c1cc(CN2C(=O)c3ccccc3C2=O)ccc1OC
[22]
  EC50: > 54.7 µM (inactive)
[23]
  IC50: > 89.2 µM (inactive)
[24]
  EC50: > 54.7 µM (inactive)
[25]
  EC50: > 54.7 µM (inactive)

From ChEMBL document CHEMBL1201862, “PubChem BioAssay data set” (2004)
